Activity calls are given as the source filed them.
How the values were obtained:
[1] = cytotoxicity in HEK-293T cells, dose response, cytotoxicity control for BCR NF-kB inhibitor project, luminescence, B-cell screen hits (AID 489021); assay type: functional, cell-based;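 also: HEK-293T cells carrying an NF-kB luciferase reporter; cells exposed to compound for about 14 hours before viability readout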
BJ [2] = assay: cytotoxicity toward BJ-TERT-LT-ST fibroblasts, dose response, cell-based, RAS-independent, luminescence (AID 1935); assay type: functional; details: Homo sapiens;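 also: BJ fibroblasts immortalized with TERT plus LT and ST oncogenes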
BJ [3] = assay: cells; assay type: functional, cell-based; details: Homo sapiens
[4] = cytotoxicity toward DRD oncogenic fibroblasts, dose response, cell-based, non-viral oncogenic, luminescence (AID 1934); assay type: functional; details: Homo sapiens
BJ [5] = assay: cytotoxicity toward BJ-TERT fibroblasts, dose response, cell-based, RAS-independent, luminescence (AID 1933); assay type: functional; details: Homo sapiens
[6] = target: T1, DNA repair and recombination protein RAD54-like (Homo sapiens, UniProt Q92698); assay: inhibitors of human RAD54 branch migration, confirmation, biochemical, fluorescence, cherry-picked samples, dose series (AID 651657); assay type: functional
T1 sequence (Q92698 whole entry): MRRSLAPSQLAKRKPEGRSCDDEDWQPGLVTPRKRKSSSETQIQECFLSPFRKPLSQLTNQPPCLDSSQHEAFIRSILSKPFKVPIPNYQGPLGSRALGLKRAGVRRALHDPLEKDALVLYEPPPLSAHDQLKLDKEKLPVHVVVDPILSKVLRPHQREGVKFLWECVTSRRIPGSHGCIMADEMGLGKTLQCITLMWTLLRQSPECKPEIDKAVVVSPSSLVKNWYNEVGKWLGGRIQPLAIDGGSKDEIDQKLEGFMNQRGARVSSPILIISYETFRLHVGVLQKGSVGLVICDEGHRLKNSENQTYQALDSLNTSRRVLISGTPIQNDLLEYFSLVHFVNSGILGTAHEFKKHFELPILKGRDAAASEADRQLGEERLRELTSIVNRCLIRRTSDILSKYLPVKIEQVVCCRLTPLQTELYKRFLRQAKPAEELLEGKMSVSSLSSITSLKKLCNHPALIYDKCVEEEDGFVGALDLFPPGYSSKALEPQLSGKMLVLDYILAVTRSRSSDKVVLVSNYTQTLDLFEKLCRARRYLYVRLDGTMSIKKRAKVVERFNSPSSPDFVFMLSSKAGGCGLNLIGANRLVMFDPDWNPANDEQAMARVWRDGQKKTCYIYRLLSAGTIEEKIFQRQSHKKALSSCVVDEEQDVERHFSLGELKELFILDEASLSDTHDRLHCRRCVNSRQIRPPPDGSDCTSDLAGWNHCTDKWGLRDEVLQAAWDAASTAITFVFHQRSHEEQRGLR

[7] = off-target signal loss in HeLa-CEM21 co-culture – HeLa F-luc CTL cells, cherry-picked, counter-screen for HIV-1 Env fusion inhibitor project, dose response (AID 652040); assay type: functional, cell-based;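 also: potency for signal decrease marking cytotoxic or nonspecific inhibition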
[8] = inhibitors of clade B AD8 Env fusion, dose response, cell-based, cherry-pick (AID 652062); assay type: functional;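 also: luciferase signal from cell-cell fusion driven by HIV-1 clade B AD8 Env; potency is for inhibitors of fusion seen as a drop in luminescence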
[9] = ZM109 Env clade C HIV-1 fusion inhibitors, dose response, HeLa effector, CEM target cells, luciferase, cherry-pick (AID 652058); assay type: functional, cell-based
[10] = inhibitors of HIV Env-driven cell fusion, dose response, cherry-pick (AID 652057); assay type: functional, cell-based
cells [11] = assay type: functional, cell-based
cells [12] = assay type: functional, cell-based; remark: listed apart in the source
[13] = target: T2, Trace amine-associated receptor 1 (Homo sapiens, UniProt Q96RJ0); assay: Counterscreen for agonists of the human trace amine associated receptor 1 (hTAAR1): Fluorescence-based cell-based high throughput dose response assay to identify hTAAR1 agonist that also desensitize TAAR1 receptor response.; assay type: functional
T2 sequence (Q96RJ0 whole entry): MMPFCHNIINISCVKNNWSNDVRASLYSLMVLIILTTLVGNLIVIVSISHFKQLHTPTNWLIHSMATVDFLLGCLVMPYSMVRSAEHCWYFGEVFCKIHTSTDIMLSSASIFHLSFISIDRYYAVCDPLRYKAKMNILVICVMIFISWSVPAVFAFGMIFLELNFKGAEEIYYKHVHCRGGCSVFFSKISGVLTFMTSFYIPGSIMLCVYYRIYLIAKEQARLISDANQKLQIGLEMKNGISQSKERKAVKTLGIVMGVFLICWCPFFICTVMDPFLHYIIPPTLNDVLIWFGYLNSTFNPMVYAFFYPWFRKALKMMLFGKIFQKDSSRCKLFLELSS

[14] = target: T2, Trace amine-associated receptor 1; assay: Fluorescence-based cell-based high throughput dose response assay to identify agonists of the human trace amine associated receptor 1 (TAAR1).; assay type: functional
Paired box protein Pax-8 = Paired box protein Pax-8 (Homo sapiens, UniProt Q06710); assay: inhibitors of PAX8-driven TPO luciferase reporter, dose response, RMG-I cells, cherry-pick (AID 687027); assay type: functional, cell-based;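 also: luciferase reporter driven by Pax8 target thyroperoxidase promoter measured by SteadyGlo luminescence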
Paired box protein Pax-8, sequence (Q06710 whole entry): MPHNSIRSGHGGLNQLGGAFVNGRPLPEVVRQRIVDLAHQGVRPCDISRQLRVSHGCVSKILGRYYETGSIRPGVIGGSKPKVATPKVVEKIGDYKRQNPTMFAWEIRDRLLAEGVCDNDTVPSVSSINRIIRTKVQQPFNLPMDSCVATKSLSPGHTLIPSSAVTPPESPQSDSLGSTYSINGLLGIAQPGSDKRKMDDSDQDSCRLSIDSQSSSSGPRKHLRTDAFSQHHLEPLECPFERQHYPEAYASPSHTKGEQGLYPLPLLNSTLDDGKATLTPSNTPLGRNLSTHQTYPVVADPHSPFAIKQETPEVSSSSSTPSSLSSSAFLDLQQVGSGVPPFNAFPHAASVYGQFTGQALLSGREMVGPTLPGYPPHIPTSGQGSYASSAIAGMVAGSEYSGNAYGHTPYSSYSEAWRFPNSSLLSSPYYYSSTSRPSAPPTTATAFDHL

[15] = NIH:OVCAR-3 ovarian cancer cell cytotoxicity, dose response, PAX8 inhibitor project, plate reader, dry powder samples (AID 743044); assay type: functional, cell-based
[16] = IGROV1 ovarian cancer cell cytotoxicity, dose response, PAX8 inhibitor project, plate reader, dry powder samples (AID 743043); assay type: functional, cell-based; details: IGROV-1
[17] = cytotoxicity in OVCAR8 ovarian cancer cells, dose response, PAX8 project, cell-based, plate reader, dry powder samples (AID 743197); assay type: functional; details: OVCAR-8
[18] = P. falciparum Dd2 growth inhibitors, dose response, SYBR Green, cherry-picked samples (AID 1159567); assay type: functional, cell-based
Cytochrome P450 3A4 = Cytochrome P450 3A4 (Homo sapiens, UniProt P08684); details: Potency;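 also: confirmatory qHTS run detecting inhibitors and substrates of CYP3A4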
Cytochrome P450 3A4, sequence (P08684 whole entry): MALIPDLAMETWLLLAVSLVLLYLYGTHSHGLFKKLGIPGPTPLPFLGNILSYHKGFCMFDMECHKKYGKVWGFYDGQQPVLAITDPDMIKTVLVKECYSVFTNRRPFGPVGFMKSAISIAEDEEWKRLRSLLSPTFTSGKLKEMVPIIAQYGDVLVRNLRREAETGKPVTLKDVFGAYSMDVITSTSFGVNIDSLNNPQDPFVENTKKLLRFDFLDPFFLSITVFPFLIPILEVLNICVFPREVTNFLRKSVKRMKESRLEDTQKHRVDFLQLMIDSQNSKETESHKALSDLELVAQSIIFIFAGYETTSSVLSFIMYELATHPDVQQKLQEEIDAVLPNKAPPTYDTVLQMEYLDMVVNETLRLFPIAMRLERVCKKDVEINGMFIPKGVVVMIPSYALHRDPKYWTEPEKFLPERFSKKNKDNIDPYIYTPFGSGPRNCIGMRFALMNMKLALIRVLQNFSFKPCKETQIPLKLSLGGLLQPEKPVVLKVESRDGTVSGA

SMILES: CCn1c(=O)cc(OCC(=O)Nc2ccc(OC)c(OC)c2)c2ccccc21
- IC50 [1]: > 80 µM (inactive)

SMILES: CCc1ccc(CN(C(=O)COc2c(C)cccc2C)C2CCS(=O)(=O)C2)cc1 (configuration not stated)
- EC50 (BJ [2]): > 150 µM (inconclusive)
- EC50 (BJ [3]): > 150 µM (not active)
- EC50 [4]: > 150 µM (not active)
- EC50 (BJ [5]): > 150 µM (not active)

SMILES: c1ccc(-c2nc(NCCCn3ccnc3)c3oc4ccccc4c3n2)cc1
- AC50 [6]: 100 µM (inactive)

SMILES: CCN1C(=O)[C@H]2[C@@H](c3ccc(C)cc3)N3C(=O)N(c4cccc(Br)c4)C(=O)[C@@]3(CC)[C@H]2C1=O
- AC50 [7]: 6.04 µM (active)
- AC50 [8]: 1.18 µM (active)
- AC50 [9]: 3.01 µM (active)
- AC50 [10]: 4.44 µM (active)

SMILES: Cc1ccc(S(=O)(=O)N2CCCCC2CCNC(=O)C(=O)NCc2ccncc2)cc1 (configuration not stated)
- IC50 [1]: > 80 µM (inactive)

SMILES: COc1cccc(OC)c1C(=O)NCCc1ccccc1
- EC50 (cells [11]): > 29.9 µM (inactive)
- IC50 (cells [12]): > 29.9 µM (inactive)
- IC50 [13]: 9.6 µM (active)
- EC50 [14]: 2.64 µM (active)

SMILES: C[C@@H]1CN([C@H](C)CO)C(=O)c2cc(NC(=O)Nc3ccc(C(F)(F)F)cc3)ccc2O[C@@H](C)CCCCO[C@@H]1CN(C)Cc1ccc2c(c1)OCO2
- AC50 (Paired box protein Pax-8): 5.56 µM (active)
- AC50 [15]: 25.1 µM (active)
- AC50 [16]: 28.4 µM (active)
- AC50 [17]: 26.4 µM (active)

SMILES: O=C(CCn1c(=S)[nH]c2cc3c(cc2c1=O)OCO3)NCCc1ccccc1Cl
- EC50 (cells [11]): > 29.9 µM (inactive)
- IC50 (cells [12]): > 29.9 µM (inactive)
- IC50 [13]: 9.24 µM (active)
- EC50 [14]: 7.04 µM (active)

SMILES: C[C@H](CO)N1C[C@H](C)[C@@H](CN(C)S(=O)(=O)c2cccc(F)c2)OCc2ccccc2-c2c(n(C)c3ccccc23)C1=O
- AC50 (Paired box protein Pax-8): 11.1 µM (active)
- AC50 [15]: 43.2 µM (active)
- AC50 [18]: 4.19 µM (active)
- AC50 [17]: > 70 µM (inactive)

SMILES: C[C@@H]1CN([C@@H](C)CO)C(=O)Cc2cc(N(C)C)ccc2O[C@H]1CN(C)Cc1ccc(C(=O)Nc2ccccc2N)cc1
- AC50 (Paired box protein Pax-8): 16.6 µM (active)
- AC50 [15]: < 0.26 µM (active)
- AC50 [16]: 45.1 µM (active)
- AC50 [17]: > 70 µM (inactive)

SMILES: CC1=C(C(=O)OCc2ccccc2)C(c2ccc(C(F)(F)F)cc2)NC(=O)N1CCCCCC(=O)O (configuration not stated)
- AC50 (Cytochrome P450 3A4): 15.8 µM (inconclusive)

SMILES: Cc1ccsc1/C=N/NC(=O)Cn1nc(C)c([N+](=O)[O-])c1C
- EC50 (cells [11]): > 29.9 µM (inactive)
- IC50 (cells [12]): > 29.9 µM (inactive)
- IC50 [13]: 5.81 µM (active)
- EC50 [14]: 3.79 µM (active)

SMILES: COc1ccc(-c2cc(=O)c3c(O)c(OC)c(OC)c(OC)c3o2)cc1OC [5-DEMETHYLNOBILETIN]
- AC50 (Cytochrome P450 3A4): 10 µM (inconclusive)
